Like-named read-outs stand apart in the source and are kept apart here. Starred links: 1 amine or outer side, 2 acyl side, 3 side chain; linkers in the order of their positions; H or OH if unused. Positions of bridges follow the written chain, without caps; N, C: chain ends. Non-standard residues stand in square brackets, D forms with d. Residues, ends and D or L forms follow the SMILES beside them. X1 = O=C([C@]1(CC=[*:3])CCCN1[*:1])[*:2]; Ala(cPr) = N[C@@H](CC1CC1)C(=O)O; S5 = C=CCCC[C@](C)(N)C(=O)O; Nle = CCCC[C@H](N)C(=O)O
How the values were obtained:
[1] = CHI Log D measurement (chromatographic hydrophobicity index); conditions: pH 7.4
in vitro = experiment: in vitro; design: dose or concentration left out as unconfirmed; conditions: PAMPA, pH 7.4, PAMPA Pe
ERβ LBD = target: T1, ERβ LBD (Homo sapiens, UniProt Q92731); experiment: Competition fluorescence polarization (FP) binding assay with FITC-ERL4 probe; conditions: read-out: EC50
T1 construct: pET28a+ vector containing ERβ LBD (residues from 261 to 500) along with an N-terminal His6-yBBr-TEV tag; His6 (N); yBBr (N); TEV cleavage site (N); made in house; host or cells: E. coli BL21(DE3) pLysS
Method: In addition to the PAMPA assay, to study the affinity of the first-generation ProLock™ stapled peptides to the Estrogen receptor p ligand-binding domain (ERβ LBD), a fluorescence polarization (FP) binding assay in competition format was used in the presence of the endogenous ERβ LBD ligand estradiol. Competition Fluorescence Polarization (FP) assay was performed on the peptides to determine their half-maximal effective concentration (EC50). To do this, FITC labeled ERL4 peptide (FITC-βAla-His-Pro-Leu-Leu-Nle-Arg-Leu-Leu-Leu-Ser-Pro-CONH2) was synthesized to be used as a fluorescence probe based on existing literature (Fuchs et al., Journal of the American Chemical Society 2013, 135 (11), 4364-4371). Direct FP was performed in black 384-well plates (Corning). The final volume of each assay well was 40 μL with constant concentration of FITC labeled ERL4 peptide (10 nM) and variable concentrations of ERβ LBD protein.
ERβ LBD expression and purification was performed as follows. BL21(DE3) pLysS E. coli cells were transformed with a pET28a+ vector containing ERβ LBD (residues from 261 to 500) along with an N-terminal His6-yBBr-TEV tag. An overnight culture in 10 mL of TB media containing 50 μg/mL kanamycin was prepared from a single bacterial colony. The overnight culture was subsequently added to 1 liter of autoclaved TB media containing 50 μg/mL kanamycin and shaken at 37° C. until an OD of 0.6-0.8 was reached. IPTG was added to the culture and left shaking for 6 hours. Bacterial culture was pelleted and resuspended in lysis buffer. Resuspended bacterial culture was incubated at 0° C. for 10 minutes before sonication at 65% amplitude with 10-sec cycles using a Branson Sonifier. The lysate was then cleared by centrifugation at 8000×g for 20 min. […] The expected molecular weight of the ERβ LBD protein is 30.8 KDa, which molecular weight was confirmed by SDS PAGE analysis. Purified ERβ LBD was concentrated to 90 μM and was stored at −80° C. buffer.
Competition FP assays were also employed. These were performed in black 384-well plates (Corning). The final volume of each assay well was 80 μL containing constant concentrations of estradiol (1 μM) and FITC labeled ERL4 (10 nM). The ERβ LBD concentration was held constant (200 nM) while varying the concentration of ProLock stapled peptides (3-fold dilution from 10 μM). Upon addition of samples to each well, the plate was centrifuged for 10 seconds at 3000 rpm and incubated at 4° C. for 1 hour. FP measurements were performed at room temperature with excitation and emission wavelengths at 485 and 535 nm using a Clariostar microplate reader (BMG Labtech). Each plate had high and low polarization samples, which are used to normalize the assay data. The competition FP results were analyzed by Prism 7 (GraphPad). The non-linear regression analysis of the data was used to determine the half-maximal effective concentration (EC50) of ProLock stapled peptides. […] The normalized FP values shown in FIG. 6 are mean±S.E.M of at least four independent replicates.

[2] = for % Retention: PAMPA
[3] = Table 4, binding to ER LBD, estradiol 1 μM, FITC-ERL4 10 nM, ERβ LBD 200 nM, mean ± S.E.M, at least four replicates
[4] = Table 2, binding to ER LBD, estradiol 1 μM, FITC-ERL4 10 nM, ERβ LBD 200 nM, mean ± S.E.M, at least four replicates
[5] = reverse-phase HPLC, Phenomenex Gemini C-18 column
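Wherever % Retention is given: Phospholipid-membrane PAMPA, donor and acceptor in DPBS pH 7.4 with 5% DMSO, 37 °C for 5 h, compound in each well quantified by reverse-phase HPLC-MS.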
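Wherever PAMPA Pe (text) is given: Phospholipid-membrane PAMPA, donor and acceptor in DPBS pH 7.4 with 5% DMSO, 37 °C for 5 h, compound in each well quantified by reverse-phase HPLC-MS.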
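Wherever PAMPA Pe is given: Phospholipid-membrane PAMPA, donor and acceptor in DPBS pH 7.4 with 5% DMSO, 37 °C for 5 h, compound in each well quantified by reverse-phase HPLC-MS.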
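Wherever Papp is given: Phospholipid-membrane PAMPA, donor and acceptor in DPBS pH 7.4 with 5% DMSO, 37 °C for 5 h, compound in each well quantified by reverse-phase HPLC-MS.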

| Structure (SMILES) | chromatographic logD [1] | Papp at 5 h (in vitro) [×10⁻⁶ cm/s] | EC50 (ERβ LBD; [3]) [nM] | % Retention [2] [%] | EC50 (ERβ LBD; [4]) [nM] | PAMPA Pe (text) [2] | chromatographic logD [1, 5] | EC50 (ERβ LBD; binding towards the ERβ LBD) [nM] | PAMPA Pe [2] |
| --- | --- | --- | --- | --- | --- | --- | --- | --- | --- |
| CNC(=O)[C@H](CC(=O)O)NC(=O)[C@H](CCC(N)=O)NC(=O)[C@H](CC(C)C)NC(=O)[C@H](CC(C)C)NC(=O)[C@H](Cc1ccc(O)cc1)NC(=O)[C@]1(C)CCCC=CC[C@]2(CCCN2C(C)=O)C(=O)N[C@@H](C)C(=O)N[C@@H](CC(C)C)C(=O)N1 (single isomer, unassigned) [PLL7-8, Ac-PL3-Ala-Leu-S5-Tyr-Leu-Leu-Gln-Asp-NHMe] | 1.7 | 1.4 ± 0.3 | > 10000 | 107 ± 3 |  |  |  |  |  |
| CNC(=O)[C@H](Cc1ccc(O)cc1)NC(=O)[C@H](CCC(N)=O)NC(=O)[C@H](CC(C)C)NC(=O)[C@H](CC(C)C)NC(=O)[C@]1(C)CCCC=CC[C@]2(CCCN2C(C)=O)C(=O)N[C@@H](CC(C)C)C(=O)N[C@@H](Cc2c[nH]cn2)C(=O)N1 (single isomer, unassigned) [PLL4-7, Ac-PL3-Leu-His-S5-Leu-Leu-Gln-Tyr-NHMe] | 2.5 | 0.3 ± 0.1 |  | 46 ± 3 | > 10000 | 0.3-0.7 ×10^−6 cm/sec |  |  |  |
| CNC(=O)[C@H](CC(=O)O)NC(=O)[C@H](CC(C)C)NC(=O)[C@H](CC(C)C)NC(=O)[C@H](Cc1ccc(O)cc1)NC(=O)[C@]1(C)CCCC=CC[C@]2(CCCN2C(C)=O)C(=O)N[C@@H]([C@@H](C)O)C(=O)N[C@@H](CC(C)C)C(=O)N1 (single isomer, unassigned) [PLL5-5, Ac-PL3-Thr-Leu-S5-Tyr-Leu-Leu-Asp-NHMe] | 1.4 | 1.4 ± 0.2 | > 10000 | 101 ± 5 |  |  |  |  |  |
| CNC(=O)[C@@H](NC(=O)[C@H](CC(C)C)NC(=O)[C@H](CC(C)C)NC(=O)[C@H](Cc1ccc(O)cc1)NC(=O)[C@]1(C)CCCC=CC[C@]2(CCCN2C(C)=O)C(=O)N[C@@H](CC(C)C)C(=O)N[C@@H](CC(C)C)C(=O)N1)[C@@H](C)O [PLL5-10, Ac-PL3-Leu-Leu-S5-Tyr-Leu-Leu-Thr-NHMe] (Ac-[X1]LL[S5]YLLT-NHMe; staple 1-4) |  | ≤ 0.1 | 1500 ± 200 | 34 ± 0 |  |  | 3.8 |  |  |
| CCCC[C@H](NC(=O)[C@]1(C)CCCC=CC[C@]2(CCCN2C(C)=O)C(=O)N[C@@H](CC(C)C)C(=O)N[C@@H](CCCNC(=N)N)C(=O)N1)C(=O)N[C@@H](CC(C)C)C(=O)N[C@@H](C)C(=O)N[C@@H](Cc1ccc(O)cc1)C(=O)NC [PLL4-12, Ac-PL3-Leu-Arg-S5-Nle-Leu-Ala-Tyr-NHMe] (Ac-[X1]LR[S5][Nle]LAY-NHMe; staple 1-4) |  | ≤ 0.1 |  | 42 ± 2 | 7500 ± 400 |  | 2.7 |  |  |
| CNC(=O)[C@H](Cc1c[nH]cn1)NC(=O)[C@H](CC(C)C)NC(=O)[C@H](CC(C)C)NC(=O)[C@H](Cc1ccc(O)cc1)NC(=O)[C@]1(C)CCCC=CC[C@]2(CCCN2C(C)=O)C(=O)N[C@@H](CC(C)C)C(=O)N[C@@H](CC(C)C)C(=O)N1 (single isomer, unassigned) [PLL5-11, Ac-PL3-Leu-Leu-S5-Tyr-Leu-Leu-His-NHMe] | 3.2 | ≤ 0.1 | > 10000 | 89 ± 1 |  |  |  |  |  |
| CNC(=O)[C@H](CC(=O)O)NC(=O)[C@H](CCC(N)=O)NC(=O)[C@H](CC(C)C)NC(=O)[C@H](CC(C)C)NC(=O)[C@H](CCCNC(=N)N)NC(=O)[C@]1(C)CCCC=CC[C@]2(CCCN2C(C)=O)C(=O)N[C@@H](CC2CC2)C(=O)N[C@@H](CC(C)C)C(=O)N1 [PLL7-5, Ac-PL3-Cpa-Leu-S5-Arg-Leu-Leu-Gln-Asp-NHMe] (Ac-[X1][Ala(cPr)]L[S5]RLLQD-NHMe; staple 1-4) |  | 0.8 ± 0.2 | 4100 ± 300 | 109 ± 2 |  |  | 2 |  |  |
| CNC(=O)[C@H](CC(=O)O)NC(=O)[C@H](CCC(N)=O)NC(=O)[C@H](CC(C)C)NC(=O)[C@H](CC(C)C)NC(=O)[C@H](Cc1ccc(O)cc1)NC(=O)[C@]1(C)CCCC=CC[C@]2(CCCN2C(C)=O)C(=O)N[C@@H](CC2CC2)C(=O)N[C@@H](CC(C)C)C(=O)N1 [PLL7-7, Ac-PL3-Cpa-Leu-S5-Tyr-Leu-Leu-Gln-Asp-NHMe] (Ac-[X1][Ala(cPr)]L[S5]YLLQD-NHMe; staple 1-4) |  | 1 ± 0.1 | 900 ± 100 | 108 ± 3 |  | exceeding 1 ×10^−6 cm/sec | 2 | 800 to 1300 | 1.0 ± 0.1 (×10^−6) cm/sec |
| CNC(=O)[C@H](CC(N)=O)NC(=O)[C@H](CC(C)C)NC(=O)[C@H](CC(C)C)NC(=O)[C@H](Cc1c[nH]cn1)NC(=O)[C@]1(C)CCCC=CC[C@]2(CCCN2C(C)=O)C(=O)N[C@@H](C)C(=O)N[C@@H](CC(C)C)C(=O)N1 (single isomer, unassigned) [PLL7-20, Ac-PL3-Ala-Leu-S5-His-Leu-Leu-Asn-NHMe] | 2.1 | 1.3 ± 0.1 | > 10000 | 104 ± 2 |  |  |  |  | 1.3 ± 0.1 (×10^−6) cm/sec |
| CNC(=O)[C@@H](NC(=O)[C@H](CC(C)C)NC(=O)[C@H](CC(C)C)NC(=O)[C@H](CC1CC1)NC(=O)[C@]1(C)CCCC=CC[C@]2(CCCN2C(C)=O)C(=O)N[C@@H]([C@@H](C)O)C(=O)N[C@@H](CC(C)C)C(=O)N1)[C@@H](C)O [PLL7-23, Ac-PL3-Thr-Leu-S5-Cpa-Leu-Leu-Thr-NHMe] (Ac-[X1]TL[S5][Ala(cPr)]LLT-NHMe; staple 1-4) |  | < 0.1 | 2400 ± 100 | 92 ± 2 |  |  | 3.2 |  |  |
| CNC(=O)[C@H](CC(=O)O)NC(=O)[C@H](CC(C)C)NC(=O)[C@H](CC(C)C)NC(=O)[C@H](Cc1ccc(O)cc1)NC(=O)[C@]1(C)CCCC=CC[C@]2(CCCN2C(C)=O)C(=O)N[C@@H](CC(C)C)C(=O)N[C@@H](CC(C)C)C(=O)N1 [PLL4-10, Ac-PL3-Leu-Leu-S5-Tyr-Leu-Leu-Asp-NHMe] (Ac-[X1]LL[S5]YLLD-NHMe; staple 1-4) |  | 0.6 ± 0.1 |  | 63 ± 4 |  | 0.3-0.7 ×10^−6 cm/sec | 2.4 | 1500 | 0.6 ± 0.1 (×10^−6) cm/sec |
| CC[C@H](C)[C@@H]1NC(=O)[C@]2(CC=CCCC[C@@](C)(C(=O)N[C@@H](CCCNC(=N)N)C(=O)N[C@@H](CC(C)C)C(=O)N[C@@H](CC(C)C)C(=O)N[C@@H](CCC(N)=O)C(=O)N[C@@H](Cc3ccc(O)cc3)C(=O)NC)NC(=O)[C@H](CC(C)C)NC1=O)CCCN2C(C)=O [PLL4-1, Ac-PL3-Ile-Leu-S5-Arg-Leu-Leu-Gln-Tyr-NHMe] (Ac-[X1]IL[S5]RLLQY-NHMe; staple 1-4) |  | ≤ 0.1 |  | 75 ± 2 |  |  | 2.9 | 200 |  |
| CNC(=O)[C@H](CC(=O)O)NC(=O)[C@H](CC(C)C)NC(=O)[C@H](CC(C)C)NC(=O)[C@H](Cc1ccc(O)cc1)NC(=O)[C@]1(C)CCCC=CC[C@]2(CCCN2C(C)=O)C(=O)N[C@@H](CCCCN)C(=O)N[C@@H](CC(C)C)C(=O)N1 (single isomer, unassigned) [PLL5-6, Ac-PL3-Lys-Leu-S5-Tyr-Leu-Leu-Asp-NHMe] | 1.2 | 1.5 ± 0.2 | > 10000 | 105 ± 5 |  |  |  |  |  |
